Reference: the supplement of paper PMC10627819

What was measured:
[1] = test system: S. aureus DSM 20231; assay: fitness (endpoint OD595 vs no drug) (fraction); higher = more growth
In short: (§1)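 Each well of a 384-well plate received 30 µl of culture at OD595 0.01, or 55 µl for S. pneumoniae. TSB, LB Lennox or CY served as media at 37 °C. OD595 was taken every 30 min for 14 h and corrected by subtracting the first reading. Fitness is the optical density at stationary-phase entry divided by the robust mean of no-drug controls, capped at 1.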

[2] = test system: S. aureus Newman; assay: as above
In short: as §1

[3] = test system: S. pneumoniae D39V; assay: as above
In short: as §1

[4] = test system: B. subtilis 168; assay: Bliss interaction score (quartile over a dose matrix) (fitness difference); higher = more antagonism (negative = synergy)
In short: (§2)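 The Bliss score takes observed fitness and subtracts the expected fitness, calculated as a product of single-drug fitness values. Those single-drug values were inferred from the combination data. Fitness is OD595 at entry into stationary phase divided by the plate's robust no-drug mean, capped at 1, and the score is summarised by quartiles across technical, biological and donor/recipient replicates.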

[5] = test system: S. aureus DSM 20231; assay: as above
In short: as §2

[6] = test system: S. aureus Newman; assay: as above
In short: as §2

[7] = test system: S. pneumoniae D39V; assay: as above
In short: as §2
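Throughout, for Bliss interaction score (quartile over a dose matrix): first quartile when negative (synergy) and third quartile when positive (antagonism).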

CC1(C)S[C@@H]2[C@H](NC(=O)[C@H](N)c3ccc(O)cc3)C(=O)N2[C@H]1C(=O)O [Amoxicillin] + CO/N=C(\C(=O)N[C@@H]1C(=O)N2C(C(=O)O)=C(COC(C)=O)CS[C@H]12)c1csc(N)n1 [Cefotaxime]
fitness
Details	first compound 0.0008 µg/mL	first compound 0.0015 µg/mL	first compound 0.003 µg/mL	first compound 0.0625 µg/mL	first compound 0.125 µg/mL	first compound 0.25 µg/mL
[1], partner 0.039 µg/mL	–	–	–	0.465	0.283	0.128
[1], partner 0.078 µg/mL	–	–	–	0.47	0.403	0.103
[1], partner 0.156 µg/mL	–	–	–	0.464	0.221	0.0332
[1], partner 0.312 µg/mL	–	–	–	0.456	0.0746	0.0409
[2], partner 0.078 µg/mL	–	–	–	0.728	0.711	0.626
[2], partner 0.156 µg/mL	–	–	–	0.575	0.551	0.51
[2], partner 0.312 µg/mL	–	–	–	0.327	0.156	0.159
[2], partner 0.625 µg/mL	–	–	–	0.191	0.0751	0.13
[2], partner 1.25 µg/mL	–	–	–	0.0345	0.0453	0.0376
[2], partner 2.5 µg/mL	–	–	–	0.0349	0.0311	0.0239
[3], partner 0.0018 µg/mL	0.993	0.998	0.977	–	–	–
[3], partner 0.0035 µg/mL	0.986	0.967	0.889	–	–	–
[3], partner 0.007 µg/mL	0.882	0.882	0.762	–	–	–

one replicate
Details	fitness
[1], first compound 0.5 µg/mL, partner 0.039 µg/mL	0.0334
[1], first compound 0.5 µg/mL, partner 0.078 µg/mL	0.0321
[1], first compound 0.5 µg/mL, partner 0.156 µg/mL	0.0325
[1], first compound 0.5 µg/mL, partner 0.312 µg/mL	0.0506
[2], first compound 0.0625 µg/mL, partner 0.039 µg/mL	0.709
[2], first compound 0.125 µg/mL, partner 0.039 µg/mL	0.736
[2], first compound 0.25 µg/mL, partner 0.039 µg/mL	0.749
[3], first compound 0.006 µg/mL, partner 0.0018 µg/mL	0.457
[3], first compound 0.006 µg/mL, partner 0.0035 µg/mL	0.344
[3], first compound 0.006 µg/mL, partner 0.007 µg/mL	0.176

Details	Bliss interaction score
[4]	0.0789
[5]	-0.14
[6]	-0.0401
[7]	-0.0441

CC1(C)S[C@@H]2[C@H](NC(=O)[C@H](N)c3ccc(O)cc3)C(=O)N2[C@H]1C(=O)O [Amoxicillin] + C[C@@H]1O[C@@H]1P(=O)(O)O [Fosfomycin]
Details	fitness
[1], first compound 0.0625 µg/mL, partner 0.781 µg/mL	0.469
[1], first compound 0.0625 µg/mL, partner 1.562 µg/mL	0.369
[1], first compound 0.0625 µg/mL, partner 3.124 µg/mL	0.0511
[1], first compound 0.125 µg/mL, partner 0.781 µg/mL	0.278
[1], first compound 0.125 µg/mL, partner 1.562 µg/mL	0.0267
[1], first compound 0.125 µg/mL, partner 3.124 µg/mL	0.0388
[1], first compound 0.25 µg/mL, partner 0.781 µg/mL	0.0416
[1], first compound 0.25 µg/mL, partner 1.562 µg/mL	0.0638
[1], first compound 0.25 µg/mL, partner 3.124 µg/mL	0.038
[2], first compound 0.0625 µg/mL, partner 0.781 µg/mL	0.612
[2], first compound 0.0625 µg/mL, partner 1.562 µg/mL	0.506
[2], first compound 0.125 µg/mL, partner 0.781 µg/mL	0.597
[2], first compound 0.125 µg/mL, partner 3.124 µg/mL	0.185
[2], first compound 0.25 µg/mL, partner 0.781 µg/mL	0.567
[2], first compound 0.25 µg/mL, partner 3.124 µg/mL	0.096
[3], first compound 0.0008 µg/mL, partner 1.25 µg/mL	0.938
[3], first compound 0.0008 µg/mL, partner 2.5 µg/mL	0.893
[3], first compound 0.0008 µg/mL, partner 5 µg/mL	0.803
[3], first compound 0.0015 µg/mL, partner 1.25 µg/mL	0.914
[3], first compound 0.0015 µg/mL, partner 2.5 µg/mL	0.887
[3], first compound 0.0015 µg/mL, partner 5 µg/mL	0.672
[3], first compound 0.003 µg/mL, partner 1.25 µg/mL	0.877
[3], first compound 0.003 µg/mL, partner 2.5 µg/mL	0.834
[3], first compound 0.003 µg/mL, partner 5 µg/mL	0.531

fitness, one replicate
Details	partner 0.781 µg/mL	partner 1.25 µg/mL	partner 1.562 µg/mL	partner 2.5 µg/mL	partner 3.124 µg/mL	partner 5 µg/mL
[1], first compound 0.5 µg/mL	0.0154	–	0.0129	–	0.0057	–
[3], first compound 0.006 µg/mL	–	0.339	–	0.279	–	0.146

Details	Bliss interaction score
[4]	0.102
[5]	-0.169
[6]	0.0512
[7]	-0.113
